From patent US20090047235A1, “Paratransgenesis to Control Termites or Other Social Insects” (priority 2007, published 2009)

Legend:
[1] = system: termite workers (gut protozoa); experiment: Defaunation of termites by feeding Metronidazole-treated filter paper; type: in vivo; details: for time to death of defaunated termites: Metronidazole feeding
Method: Using an aspirator, six groups of 100 termite workers each were collected and placed in Petri dishes containing damp filter paper. In addition, 10 soldiers were added to each group to enhance the overall survivorship rate. […] The remaining three groups of termites were transferred to Petri dishes containing paper that had been dampened with autoclaved tap water. All six replicates were transferred to an incubator and mortality was recorded every 24 hours. […] Once defaunation had been confirmed, all six groups were thereafter provided only with filter paper dampened with sterile tap water. Mortality was recorded each day. Statistically significant differences in mortality between treatment groups and control groups were established using 95% confidence intervals.

[2] = system: protozoa in the hindgut of termite workers; experiment: In vivo microinjection of lytic peptides into the termite hindgut; details: for relative effectiveness against protozoa in vivo among peptides tested: hindgut microinjection, 50 μM; for time to defaunation of injected termite workers: ~0.5 μl of 50 μM lytic peptide injected into hindgut
Description: A termite microinjection protocol was used to confirm directly the effect of lytic peptide in the hindgut. We first optimized the protocol by finding preferred conditions for each of the following: the time to immobilize a termite by cooling on ice; suitable methods for anchoring the termite in place for microinjection; and the maximum volume that could consistently be injected into the hindgut without causing direct trauma. Microinjection directly to the termite hindgut avoided the possibility of peptide degradation by non-specific protease activity in the foregut or midgut.
Termite workers were immobilized by chilling on ice for 1.5 min, and were then mechanically aspirated, head-first, into a modified pipette tip that had been trimmed to expose the terminus of the termite. This “termite holder” was attached to a micromanipulator, and the insect was advanced to insert a Sigmacote™-treated, fine glass needle into the anus of the termite. Lytic peptide or control solution was injected under the control of a high-speed, electronic foot pedal with pulse length control, to ensure that a constant volume was reproducibly injected into each insect. Approximately 0.5 μl of 10 mM Tris-HCl (pH 7.4) (control) or 0.5 μl of 50 μM lytic peptide dissolved in 10 mM Tris-HCl (pH 7.4) was injected into the hindgut of each termite. A second control group of non-injected termite workers was also included. The termites were housed in 3 cm Petri dishes, in which damp filter paper was provided. At 24, 48, and 72 hrs guts from randomly selected termites from each treatment were extirpated, and observations were made of the presence and motility of protozoa.

[3] = system: termite protozoa (Pseudotrichonympha grassii Koidzumi, Holomastigotoides hartmanni Koidzumi, Spirotrichonympha leidyi Koidzumi); experiment: In vitro lytic peptide test on anaerobic cultures of termite hindgut protozoa; type: cell-based; details: 50 μM peptide, after 5-10 minutes
Description: (§1) Three protozoal species (Pseudotrichonympha grassii Koidzumi, Holomastigotoides hartmanni Koidzumi, and Spirotrichonympha leidyi Koidzumi) from the termite hindgut were maintained for 24 hrs in vitro, a sufficient time to allow testing of lytic peptides. The protozoa were removed from the termite hindgut in an anaerobic glove-box, and placed in sterile, sparged (Hydrogen 2.5%, Carbon dioxide 5% and Nitrogen 92.5%) Trager U (pH 7.0) saline solution. Positive controls for testing lytic peptides were established and validated with these cultures. The efficacy of the lytic peptides was then routinely tested prior to experiments to confirm both aerobic activity (using the “standard” T. pyriformis) and anaerobic activity (using cultures of the termite protozoa). One hundred percent mortality was observed after 5-10 minutes when any of these protozoa were treated with any one of three lytic peptides (hecate, melittin, or cecropin) at a 50 μM concentration, confirming the toxicity of the lytic peptides towards termite protozoa in an anaerobic environment that mimicked termite hindgut conditions.
(§2) The efficacy of each lytic peptide solution was confirmed using T. pyriformis and termite protozoa cultures in vitro before each microinjection test. A 5 ml overnight culture of T. pyriformis was washed three times in sterile 10 mM Tris-HCl (pH 7.4), and suspended in 1 ml 10 mM Tris-HCl (pH 7.4). Subsequently, 100 μl aliquots were placed in a Sigmacote™-treated, 96-well microplate. The lytic peptides were dissolved in 10 mM Tris-HCl. A range of concentrations (25-500 μM) of lytic peptide was added to each of several wells, and the remaining wells were treated with 10 mM Tris-HCl (pH 7.4) as control. After confirming aerobic activity of the lytic peptide concentrations against T. pyriformis, lytic peptide efficacy was then tested against anaerobic cultures of termite protozoa. Sparged lytic peptide was added anaerobically to the sparged cultures of termite protozoa, and mortality was observed.

Tetrahymena pyriformis = experiment: In vitro lytic peptide test on aerobic Tetrahymena pyriformis cultures; type: cell-based; details: 50 μM peptide, after 5-10 minutes
Method: The initial positive control for testing the efficacy of lytic peptide solutions was the aerobic, laboratory standard protozoan Tetrahymena pyriformis, cultures of which were purchased from Carolina Biological (#13-1182A) and maintained in proteose peptone media. Before each experiment, lytic peptide activity was tested using T. pyriformis.
as §1
as §2, with “After confirming aerobic activity of the lytic peptide concentrations against T. pyriformis, lytic peptide efficacy was then tested against anaerobic cultures of termite protozoa. Sparged lytic peptide was added anaerobically to the sparged cultures of termite protozoa, and mortality was observed.” left out

[4] = system: termite symbiotic protozoa; details: preliminary data, poster 2002; cited from earlier work
[5] = system: termite workers (gut protozoa); experiment: Termite feeding experiments with yeast expressing lytic peptide; type: in vivo; details: summary statement
Method: Lytic peptide-expressing and control Kluyveromyces lactis strains were used in termite feeding experiments. Aliquots of 2 ml YPGal in Sigmacote™-treated 15 ml Falcon tubes were inoculated with yeast, which were then grown for 3 days, with shaking at 225 rpm at 30° C. The strains grown were K. lactis engineered with the expression vector (control), K. lactis expressing the control protein MBP, and K. lactis expressing a lytic peptide gene (either hecate or hecate-GFP fusion). The cultures were washed three times with sterile, deionized water, and re-suspended in 500 μl sterile 10 mM galactose. Galactose was used because the coding sequences were under the control of the LAC4 promoter, a strong promoter whose activity is induced by galactose. Secretion of active lytic peptide by the transformed K. lactis into the growth media was verified using in vitro cultures of the protozoa T. pyriformis.
Termites were collected in New Orleans, La., and were maintained on damp cardboard in plastic buckets at room temperature. Only termites that had been held in the laboratory less than 4 weeks were used in the feeding experiments. […]
Termite mortality was recorded every three days. The number of viable termites was also recorded, as cannibalism in laboratory colonies has sometimes been observed. […]

| Compound | mortality of defaunated termites versus controls ([1]; 95% confidence intervals did not overlap) | time to death of defaunated termites [1] | time to death of defaunated termites ([1]; listed as metronidazole) | time to defaunation of termite workers ([1]; filter paper treated with 400 μL Metronidazole (2 g/L)) [days] | relative effectiveness against protozoa in vivo among peptides tested [2] | time to defaunation of injected termite workers [2] [h] | mortality of termite protozoa [3] | mortality of T. pyriformis (Tetrahymena pyriformis) | killing of termite symbiotic protozoa in vitro [4] | effect on protozoa in the termite gut [5] | time to death of the insect without protozoa [5] |
| --- | --- | --- | --- | --- | --- | --- | --- | --- | --- | --- | --- |
| Cc1ncc([N+](=O)[O-])n1CCO [Metronidazole] | significantly higher mortality | six | six and about six | ≤ 7 |  |  |  |  |  |  |  |
| CC[C@H](C)[C@H](NC(=O)CN)C(=O)NCC(=O)N[C@@H](C)C(=O)N[C@H](C(=O)N[C@@H](CC(C)C)C(=O)N[C@@H](CCCCN)C(=O)N[C@H](C(=O)N[C@@H](CC(C)C)C(=O)N[C@H](C(=O)N[C@H](C(=O)NCC(=O)N[C@@H](CC(C)C)C(=O)N1CCC[C@H]1C(=O)N[C@@H](C)C(=O)N[C@@H](CC(C)C)C(=O)N[C@H](C(=O)N[C@@H](CO)C(=O)N[C@@H](Cc1c[nH]c2ccccc12)C(=O)N[C@H](C(=O)N[C@@H](CCCCN)C(=O)N[C@@H](CCCNC(=N)N)C(=O)N[C@@H](CCCCN)C(=O)N[C@@H](CCCNC(=N)N)C(=O)N[C@@H](CCC(N)=O)C(=O)N[C@@H](CCC(N)=O)C(N)=O)[C@@H](C)CC)[C@@H](C)CC)[C@@H](C)O)[C@@H](C)O)C(C)C)C(C)C [melittin] |  |  |  |  | more effective against protozoa in vivo | 72 | One hundred | One hundred |  |  |  |
| cecropin |  |  |  |  |  |  | One hundred | One hundred |  |  |  |
| falalkalkk alkklkkalk kal (FALALKALKKALKKLKKALKKA; This is the designed peptide known as hecate.) |  |  |  |  | more effective against protozoa in vivo | 72 | One hundred | One hundred | would kill termite symbiotic protozoa | kill all (or at least most) species of protozoa in the termite gut | about six |
